# From PMC8838415, “Discovery of Novel Pleuromutilin Derivatives as Potent Antibacterial Agents for the Treatment of MRSA Infection” (Molecules, 2022)
# Experiments:
# S. aureus (ATCC 29213) = assay: MIC and MBC, broth dilution, S. aureus ATCC 29213; assay type: cell-based; settings: Staphylococcus aureus, ATCC29213
# Protocol: (§1) The synthesized pleuromutilin derivatives 8–30 were tested against four Gram-positive bacteria (MRSA ATCC 43300, S. aureus ATCC 29213 and two clinical strains of S. aureus (AD3 and 144) isolated from Guangdong Province). Tiamulin was used as the positive control in this experiment.
# (§2) MIC values were tested following our previous work. The derivatives were dissolved in an aqueous solution of 2.5% tween-80 and 2.5% DMSO to make a solution with a concentration of 1000 µg/mL. The solution was diluted 12 times with MH broth to give a concentration range of 32–0.01 µg/mL. The bacteria (5 × 10^5 CFU/mL) were added in each well. For each compound concentration, three parallel experiments were set. The 96-well plate was incubated for 22–26 h at 37 °C. The MIC value was recorded as the minimal concentration that inhibits the visible growth of tested bacteria completely.
# (§3) The MBC of these pleuromutilin derivatives were tested according to a previously reference. […] Then, the values of MBC were determined by laying 100 μL aliquots from the wells onto the MH agar plates without visible growth. The MH agar plate was cultured for a further 22–26 h at 37 °C.
# 50S ribosome = assay: SPR interaction and affinity analysis; assay type: binding, S. aureus ATCC 43300; settings: 4 °C; for Avg ka / Avg kd: 1:1 Langmuir binding; for Kd: KD = Kd/Ka
# Protocol: S. aureus ATCC 43300 was used to prepare the 50S ribosomal subunit the same way as described previously. Cells were grown overnight in Brain Heart Infusion broth at 37 °C and harvested for 1.5 h at an OD600. Cells were washed with 10 mM Tris-HCl twice at pH = 7.5, and resuspended in 5 mL buffer A (20 mM HEPES-HCl pH = 7.5, 21 mM Mg(OAc)2, 100 mM NH4Cl, 1 mM DTT, 1 mM EDTA). Cells were broken by an ultrasound crusher. The lysate was centrifuged for 90 min at 20,000× g to clear cell debris.
# The solution was layered on a sucrose cushion of 15 mL (10 mM Hepes-KOH pH 7.5, 25 mM Mg(OAc)2, 500 mM KCl, […], 1 mM DTT, 0.5 mM EDTA). Centrifugation was carried out for 15 h at 45,000 rpm using an ultracentrifuge Beckman (Beckman Coulter, Shanghai, China), Type 70Ti rotor. The crude ribosome pellet was resuspended in buffer E (10 mM Hepes-KOH pH 7.5, 10 mM Mg(OAc)2, 100 mM KCl, 1 mM DTT, 0.5 mM EDTA), then layered on 9 mL of 7–30% sucrose gradient and centrifuged in an ultracentrifuge Beckman, type SW40Ti rotor at 17,100 rpm for 15 h. The gradient was analyzed on the AKTA explorer system (Amersham, UK). The fractions corresponding to the 50S ribosomal subunit were collected and further subjected to precipitation by PEG 20,000. The 50S ribosomal subunit pellet was gently dissolved in 200 µL of storage buffer (10 mM HEPES-HCl pH = 7.5, 10 mM Mg(OAc)2, 15 mM KCl, 60 mM NH4Cl, 1 mM DTT) and stored at −80 °C.
# SPR affinity analysis was performed on the bScreen LB 991 Label-free Microarray System (Berthold Technologies, Black Forest, Germany) at 4 °C and Biodot AD-1520 Array Printer (BIODOT Inc., Irvine, CA, USA) with a Photo-cross-linker SensorCHIP™. Concentrations of each compound were diluted to 100 μM with DMSO as the printing working solution for immobilization. A Biodot AD-1520 Array Printer (BIODOT Inc., CA, USA) was used to control the photo-cross-linker sensor chip and print samples. Each sample was printed four times. In order to check the chip quality and check whether the detection system works, DMSO was used as a system-negative control and rapamycin as a positive control. All positive control dots were divided into four groups and printed on the four corners of the sensor chip. The sensor chip was dried in vacuum after the array print and quickly transferred to a spectra radiator for a photo cross-linking reaction. The sensor chip was washed with C2H5OH, DMF and H2O in turn and evaporated in a N2 atmosphere for 15 min. Then, the Flowcell Cover were assembled.
# The 50S ribosome was diluted separately to 200 nM, 400 nM, 800 nM, 1600 nM and 3200 nM with PBST (pH = 7.4, 0.1% Tween 20). Different concentrations of ribosome solutions were injected at a flow rate of 0.5 μL⋅s^−1 for 600 s at the associating stage at 4 °C, followed by PBST at a flow rate of 0.5⋅μL·s^−1 for 360 s at each dissociating stage. Then, the surface was regenerated with Glycine-HCl (pH = 2.0) at a flow rate of 2⋅μL·s^−1 for 300 s.
# The raw data of the binding process of compounds and the 50S ribosome were recorded in real time. We compared the response unit (RU) of surface resonance to determine the different binding affinity between each sample dot. The process and analysis of association rate constants (Ka) and dissociation rate constants (Kd) and the equilibrium dissociation constant (KD, Kd/Ka) were performed using the data analysis software of the bScreen LB 991 Label-free Microarray System according to a single-site binding model (1:1 Langmuir binding) with mass transfer limitations for binding kinetics determination.
# S. aureus (AD3) = assay: MIC and MBC, broth dilution, S. aureus AD3; assay type: cell-based; settings: Staphylococcus aureus; S. aureus AD3 (clinical strain)
# Protocol: as §1, §2, §3
# [1] = test system: methicillin-resistant S. aureus (ATCC 43300); assay: MIC and MBC, broth dilution, MRSA ATCC 43300; assay type: cell-based; settings: Staphylococcus aureus
# Protocol: as §1, §2, §3
# S. aureus (144) = assay: MIC and MBC, broth dilution, S. aureus 144; assay type: cell-based; settings: Staphylococcus aureus; S. aureus 144 (clinical strain)
# Protocol: as §1, §2, §3
MIC (S. aureus (ATCC 29213)) [µg/mL],Avg kd (50S ribosome) [s⁻¹],Kd (50S ribosome) [µM],MIC (S. aureus (AD3)) [µg/mL],MIC [1] [µg/mL],melting point [°C],MIC (S. aureus (144)) [µg/mL],SMILES,MBC (S. aureus (ATCC 29213)) [µg/mL],Avg ka (50S ribosome) [M⁻¹ s⁻¹],MBC (S. aureus (AD3)) [µg/mL],MBC [1] [µg/mL],MBC (S. aureus (144)) [µg/mL]
16,0.00073,6.41,32,16,76 to 77,32,"C=C[C@]1(C)C[C@@H](OC(=O)CNCCCCCCCC)[C@]2(C)[C@H](C)CC[C@]3(CCC(=O)[C@H]32)[C@@H](C)[C@@H]1O [Compound 22, 22-Octylamineyl-22-deoxypleuromutilin]",> 32,114,> 32,32,> 32
16,0.00929,4560,8,4,76 to 77,16,"C=C[C@]1(C)C[C@@H](OC(=O)CNCc2ccc(F)cc2)[C@]2(C)[C@H](C)CC[C@]3(CCC(=O)[C@H]32)[C@@H](C)[C@@H]1O [Compound 16, 22-(4-Fluorobenzylamineyl)-22-deoxypleuromutilin]",32,2.04,16,8,32
2,0.00445,33.2,4,1,91 to 93,4,"C=C[C@]1(C)C[C@@H](OC(=O)CNCCc2ccccc2C)[C@]2(C)[C@H](C)CC[C@]3(CCC(=O)[C@H]32)[C@@H](C)[C@@H]1O [Compound 18, 22-(2-Methylphenethylamineyl)-22-deoxypleuromutilin]",8,134,16,2,4
4,0.00432,2.21,2,1,143 to 144,8,"C=C[C@]1(C)C[C@@H](OC(=O)CNCc2cccc(F)c2)[C@]2(C)[C@H](C)CC[C@]3(CCC(=O)[C@H]32)[C@@H](C)[C@@H]1O [Compound 15, 22-(3-Fluorobenzylamineyl)-22-deoxypleuromutilin]",8,1960,8,2,16
32,0.0011,0.0456,32,32,75 to 77,32,"C=C[C@]1(C)C[C@@H](OC(=O)CNCCCCCCCCCCCC)[C@]2(C)[C@H](C)CC[C@]3(CCC(=O)[C@H]32)[C@@H](C)[C@@H]1O [Compound 23, 22-Dodecylamineyl-22-deoxypleuromutilin]",> 32,24100,> 32,32,> 32
32,0.0375,993,> 32,32,76 to 79,32,"C=C[C@]1(C)C[C@@H](OC(=O)CNCCCCCCCCCCCCCCCC)[C@]2(C)[C@H](C)CC[C@]3(CCC(=O)[C@H]32)[C@@H](C)[C@@H]1O [Compound 24, 22-Hexadecylamineyl-22-deoxypleuromutilin]",> 32,,> 32,> 32,> 32
